Laboratory results reported in US20140294737A1, “TREATMENT OF RHINITIS” (AMPIO PHARMACEUTICALS, INC., priority 2011, published 2014).

Test system: allergic rhinitis in adult humans
Assay: Phase Ib randomized, double-blinded, placebo-controlled study of danazol intranasal spray; subject-reported Total Nasal Symptom Score (TNSS)
Assay type: in vivo, human
Parameters: key to Change in rTNSS, Median / Change in AM rTNSS, Median / Change in iTNSS, Median / Change in AM iTNSS, Median: change in TNSS, sum of four 0–3 symptom scores (0–12)
Procedure: A Phase Ib randomized, double-blinded, placebo-controlled, parallel group study was performed to evaluate the efficacy of danazol for treating allergic rhinitis in adult humans. Briefly, the study was performed as follows.
The subjects were male or female humans, 18-65 years of age, with a history of allergic rhinitis that had been receiving therapy (continuous or intermittent) for more than 1 year.
During a seven-day wash out period (days 1-7), the subjects received no treatment of any type and recorded their symptoms twice a day (in the morning before bathing, consumption of food or beverages or strenuous activities and 12 hours later) using the following scale: • 0=absent (no sign/symptom present) • 1=mild (sign/symptom clearly present, but minimal awareness; easily tolerated) • 2=moderate (definite awareness of sign/symptom that is bothersome but tolerable) • 3=severe (sign/symptom that is hard to tolerate; causes interference with activities of daily living and/or sleeping)
The subjects were randomized into treatment groups (danazol or placebo) after the wash out period (on day 8).
Treatment was begun on day 8 and continued through day 21 (14 days total). During treatment, the subjects again recorded their symptoms twice daily (as described above and before administration of the test medications in the morning) using the above scale. The subjects administered 0.3 ml of one of the test medications, 0.15 ml per nostril, once daily in the morning, immediately after recording their symptoms. The first administration of test medications was supervised by test site personnel. The test medications were 0.1% (w/v) danazol intranasal spray and placebo spray (nonmedicinal components in identical intranasal spray format). Efficacy of the test medications was assessed as follows:
The measures of effectiveness in this study included the subject-reported Total Nasal Symptom Score (TNSS). The TNSS is defined as the sum of the subject-reported symptom scores for the four nasal symptoms: rhinorrhea (runny nose), nasal congestion, nasal itching, and sneezing. Each score is assessed on a severity scale ranging from 0 to 3 as defined above.
The subjects were asked to assess both reflective TNSS (i.e., an evaluation of symptom severity over the past 12 hours prior to the recording of the score) and instantaneous TNSS (i.e., an evaluation of the symptom severity over the last 10 minutes).
The reflective and instantaneous TNSS are defined as the sum of the subject-reported symptom scores for the four nasal symptoms. Each subject recorded the symptom scores in the subject's diary. For each score, information recorded in the diary included the following: • rhinorrhea (runny nose) • nasal congestion • nasal itching • sneezing The severity scale for each symptom evaluation is given above.
Mean reflective (r) and instantaneous (i) subject-reported total nasal symptom scores (TNSS) were calculated for each subject. The mean TNSS is the average of all AM and PM daily scores (each score is ranked on a scale from 0-12) during the baseline (baseline efficacy value) and the treatment period (double-blind efficacy value).
The change in efficacy was calculated as the change in the double-blind value—baseline value as follows: • Change in rTNSS: mean double-blind rTNSS—mean baseline rTNSS • Change in iTNSS: mean double-blind iTNSS—mean baseline iTNSS Student's t-test: mean (SD) difference between treatment groups for the following: • Mean change in (rTNSS/iTNSS) • Mean change in AM (rTNSS/iTNSS) • Mean change in PM (rTNSS/iTNSS) • Mean change in individual symptom scores for each of the four nasal symptoms.
The largest improvements were with itchy nose symptoms (Table 8 and FIG. 6).

[1] = Wilcoxon rank-sum analysis, median, n=10
[2] = instantaneous symptom score 0-3, double-blind minus baseline, mean (SD), n=10
[3] = reflective symptom score 0-3, double-blind minus baseline, mean (SD), n=10

## C#C[C@]1(O)CC[C@H]2[C@@H]3CCC4=Cc5oncc5C[C@]4(C)[C@H]3CC[C@@]21C [Danazol, 17α-pregna-2,4-dien-20-yno[2,3-d]-isoxazol-17β-ol]
[1]
  Change in instantaneous symptom iItchy nose, Median: −1.0
  Change in instantaneous symptom iRunny nose, Median: 0.0
  Change in instantaneous symptom iSneezing, Median: −0.5
  Change in instantaneous symptom iStuffy nose, Median: −0.5
  Change in reflective symptom rItchy nose, Median: −1.0
  Change in reflective symptom rRunny nose, Median: −0.25
  Change in reflective symptom rSneezing, Median: −1.0
  Change in reflective symptom rStuffy nose, Median: 0.0
iTNSS measures, all assessments but sneezing
  efficacy measures showing a larger improvement with danazol than with placebo, instantaneous: 6/7
Instantaneous TNSS, all AM and PM scores, double-blind minus baseline, 0.1% (w/v) intranasal spray once daily, 14 days, mean (SD), n=10
  Mean change in iTNSS: −1.94 (2.68)
Instantaneous TNSS, evening assessment, double-blind minus baseline, mean (SD), n=10
  Mean change in PM iTNSS: −1.42 (2.64)
Instantaneous TNSS, evening, Wilcoxon rank-sum analysis, median, n=10
  Change in PM iTNSS, Median: −1.5
Instantaneous TNSS, morning assessment, double-blind minus baseline, mean (SD), n=10
  Mean change in AM iTNSS: −1.59 (2.36)
Instantaneous TNSS, morning, Wilcoxon rank-sum analysis, median, n=10
  Change in AM iTNSS, Median: −1.5
Instantaneous TNSS, Wilcoxon rank-sum analysis, median, n=10
  Change in iTNSS, Median: −1.75
[2]
  Mean change in instantaneous symptom iItchy nose: −0.70 (0.92)
  Mean change in instantaneous symptom iRunny nose: −0.30 (1.07)
  Mean change in instantaneous symptom iSneezing: −0.50 (0.53)
  Mean change in instantaneous symptom iStuffy nose: −0.44 (0.56)
mean, Student's t-test analysis, vs 1.14 point decrease with placebo
  decrease in instantaneous symptom severity (iTNSS): 1.94 point
mean, Student's t-test analysis, vs 1.16 point decrease with placebo
  decrease in reflective symptom severity (rTNSS): 2.11 point
median, Wilcoxon rank-sum analysis, vs 0.75 point decrease with placebo
  decrease in instantaneous symptom severity (iTNSS): 1.75 point
median, Wilcoxon rank-sum analysis, vs 1.25 point decrease with placebo
  decrease in reflective symptom severity during the PM assessment (rTNSS): 3.25 point
rTNSS measures, all assessments but runny nose symptom
  efficacy measures showing a larger improvement with danazol than placebo, reflective: 6/7
Reflective TNSS, all AM and PM scores, double-blind minus baseline, 0.1% (w/v) intranasal spray 0.3 ml once daily, 14 days, mean (SD), n=10
  Mean change in rTNSS: −2.11 (2.66)
Reflective TNSS, evening assessment, double-blind minus baseline, 0.1% (w/v) intranasal spray once daily, 14 days, mean (SD), n=10
  Mean change in PM rTNSS: −2.39 (2.68)
Reflective TNSS, evening assessment, double-blind minus baseline, 0.1% (w/v) intranasal spray once daily, 14 days, mean (SD), n=10, listed as danazol
  Mean change in PM rTNSS: −2.39
Reflective TNSS, evening, Wilcoxon rank-sum analysis, median, n=10
  Change in PM rTNSS, Median: −3.25
Reflective TNSS, morning assessment, double-blind minus baseline, 0.1% (w/v) intranasal spray once daily, 14 days, mean (SD), n=10
  Mean change in AM rTNSS: −1.62 (2.40)
Reflective TNSS, morning, Wilcoxon rank-sum analysis, median, n=10
  Change in AM rTNSS, Median: −2.0
Reflective TNSS, Wilcoxon rank-sum analysis, median, n=10
  Change in rTNSS, Median: −2.25
[3]
  Mean change in reflective symptom rItchy nose: −0.85 (1.02)
  Mean change in reflective symptom rRunny nose: −0.30 (0.66)
  Mean change in reflective symptom rSneezing: −0.47 (0.71)
  Mean change in reflective symptom rStuffy nose: −0.48 (0.69)
